# Test results taken from PMC8103899, “Allyl Isothiocyanate: A TAS2R38 Receptor-Dependent Immune Modulator at the Interface Between Personalized Medicine and Nutrition” (Frontiers in Immunology, 2021).
# How the values were obtained:
# [1] = Human food intervention: AITC metabolite plasma levels after mustard intake (LC-ESI-MS/MS); type: in vivo; settings: single intake of an AITC containing food product
# Procedure: AITC metabolite quantification was carried out in blood plasma samples derived from an intervention study at the University Medical Center in Freiburg, Germany. Samples were from 4 healthy young adults (3 females, 1 male, aged between 30-40 years) having a normal BMI, and were non-smokers. Each subject consumed one time 10 g of a commercially available mustard preparation ([…] Munich, Germany) containing 24.74 ± 1.76 μmol/g fresh weight preformed AITC on an empty stomach with optional consumption of white bread. The intervention was preceded by a 48 h wash-out phase consisting of a glucosinolate/ITC-free diet. After 30 min and optionally 60 min, blood was collected by venipuncture in serum tubes and centrifuged at 2000g for 10 min, 4°C to obtain serum. Subsequently, TFA was added and the samples frozen at -80°C. The preparation of serum samples (300 μL serum and 100 μL TFA) was conducted as described by Kühn et al. ([37]). The frozen samples were thawed, vortexed (1 min) and centrifuged (4 °C, 10 min, 20.854 x g). The supernatant was transferred to SPE cartridges. Prior to transferring, SPE cartridges were conditioned with acetonitrile (ACN, 3 mL) and equilibrated with water (3 mL). After sample application, the cartridges were washed with formic acid (FA, 3 mL, 0.1% in water) and the metabolites were eluted with FA (3 mL, 0.1% in ACN:water, 90:10, v/v). […] The samples were re-dissolved in 100 μL FA (0.1% in ACN:water, 90:10, v/v). Sample aliquots of 5 μL were injected into the LC-ESI-MS/MS system. LC-ESI-MS/MS analysis was performed on an API4000 triple quadrupole mass spectrometer (AB Sciex Germany GmbH, Darmstadt, Germany) equipped with an Agilent 1200 LC system (Agilent Technologies Deutschland GmbH & Co. KG, Waldbronn, Germany). For data acquisition and processing the software Analyst 1.6.1 (AB Sciex Germany GmbH, Darmstadt, Germany) was used. […] AITC-CysGly; AITC-Cys; AITC-NAC) was conducted according to Platz et al. ([38]) with minor modifications. The separation was performed on a Kinetex C18 column (Phenomenex, 5 μm, 100 Å, 150 x 2.1 mm). The autosampler operated at 4°C and the set temperature for the oven was 20°C. A constant flow of 300 μL/min was used for the mobile phase which consisted of 0.1% FA in water (A) and 0.1% FA in ACN (B). […] In order to equilibrate the column, A was increased to 90% and held for 5 min. The relevant MS parameters include an entrance potential of -10 V, a desolvation gas temperature of 450°C, ion spray potential of -4.5 kV, gas 1 and gas 2 at 46 psi and a curtain gas pressure at 10 psi.
# [2] = system: NO production; assay: Nitric oxide detection by flow cytometry (DAF-FM) in PBMC; type: cell-based, human; settings: for NO production increase: monocytes, 5h
# Procedure: PBMC (0.25x10^6) were suspended in DMEM medium and exposed to solvent control, AITC or 100 µM of the NO-donor SNAP (positive control) in 96-well plates for 30-270 min in a humidified incubator (5% CO2, 37°C). After that, cells were then loaded with 0.5 µM DAF-FM diacetate prepared in HBSS buffer for another 30 min. DAF-FM loading at this low concentration allows reducing the background fluorescence and improving the signal to noise ratio in a single cell ([34]). After incubation, the cells were washed twice with PBS, followed by 30 min. de-esterification of the intracellular diacetates in the dark at room temperature. Fluorescence signals (ex 488 nm, em 530± 30 nm) were monitored using a FACSCalibur™ flow cytometer. The median fluorescence intensity (MFI) of each sample was calculated using FlowJo software (Ashland, Oregon, USA). DAF-FM-DA has a detection limit of about 5 nM NO ([35]).
# Figure 3 AITC stimulates NO production and exerts bactericidal activity in dependence of the TAS2R38 haplotype. PBMC were isolated from AVI/AVI or PAV/PAV genotype subjects and (A) exposed to 0.01% DMSO (SC), AITC, the NO-donor SNAP (positive control), or the NO scavenger cPTIO for the indicated time points. Then, 0.5 µM DAF-FM diacetate was added for 30 min. Fluorescence signals (ex 488 nm, em 530± 30 nm) were monitored using a FACSCalibur™. The median fluorescence intensity (MFI) of each sample was calculated using FlowJo software (Ashland, Oregon, USA). A representative histogram of one PAV/PAV subject is shown on the top, (B) incubated with E. coli K-12 at MOI 0.5 and exposed to 0.01% DMSO (SC) or AITC for 120 min at 37°C. Cell membrane potential depolarization was determined by staining bacteria with 1 µg/ml DiBAC4(3) for 10 min, in the dark at room temperature. Representative scattergrams of E. coli K-12 and PBMC treated with E. coli K-12 are given. An FSC/SSC plot was first made and E. coli K-12 cells gated. The population was copied to a SSC/DiBAC4(3)-scatterplot identifying the percentage of depolarized bacteria. Bars are mean value + SD, *p < 0.05, **p < 0.01. Significance of difference was calculated relative to the respective control by one-way ANOVA. […]
smiles,measurement,setting,value
"C=CCN=C=S [AITC, allyl isothiocyanate]",AITC plasma levels,[1],around one
same,NO in monocyte cell population,"[2]; AITC ≥ 10 µM, 1h, PAV/PAV (not AVI/AVI)",insignificant increase
same,NO production in the lymphocyte population,"[2]; PAV/PAV vs AVI/AVI, NO only detected after 5h at 100 µM AITC",no differential regulation
same,NO production increase,"[2]; AVI/AVI, 100 µM AITC",41%
same,NO production increase,"[2]; PAV/PAV, 3 µM AITC",46%
